The nature of data set [1]: Cmax in cannulated Sprague-Dawley rat assessed as (S)-(5S,10S,11S,14S)-11-Benzyl-5,14-di-tert-butyl-3,6,13,16-tetraoxo-8-(4-(pyridin-2-yl)benzyl)-2,17-dioxa-4,7,8,12,15-pentaazaoctadecan-10-yl 2-amino-3-methylbutanoate level at 3 mg/kg equiv of atazanavir administered orally by UPLC/MS/MS analysis. The data set is classed as ADME, organism-based. Details: dose 3 mg/kg, route oral. The settings on record: in vivo, po.

Data set [2] can be described thus: Tmax in cannulated Sprague-Dawley rat assessed as (S)-(5S,10S,11S,14S)-11-Benzyl-5,14-di-tert-butyl-3,6,13,16-tetraoxo-8-(4-(pyridin-2-yl)benzyl)-2,17-dioxa-4,7,8,12,15-pentaazaoctadecan-10-yl 2-amino-3-methylbutanoate level at 3 mg/kg equiv of atazanavir administered orally by UPLC/MS/MS analysis. The data set is classed as ADME, organism-based. The conditions noted are these: in vivo, po.

Data set [3] can be described thus: AUClast in cannulated Sprague-Dawley rat assessed as (S)-(5S,10S,11S,14S)-11-Benzyl-5,14-di-tert-butyl-3,6,13,16-tetraoxo-8-(4-(pyridin-2-yl)benzyl)-2,17-dioxa-4,7,8,12,15-pentaazaoctadecan-10-yl 2-amino-3-methylbutanoate level at 3 mg/kg equiv of atazanavir administered orally by UPLC/MS/MS analysis. The data set is classed as ADME, organism-based. Details: dose 3 mg/kg, time 0 - last, route oral. The conditions noted are these: in vivo, po.

Data set [4] addresses Protease (Human immunodeficiency virus 1, UniProt Q9YQ12).
Description: Inhibition of HIV1 protease activity
The conditions of data set [5]: rat, in vivo, po, 3 mg/kg.
The conditions of data set [6]: rat, in vivo, po, 3 mg/kg. This is another data set of the same source.
The conditions of data set [7]: rat, in vivo, po, 3 mg/kg. The source holds these as a separate data set.
Description: AUClast in cannulated Sprague-Dawley rat assessed as atazanavir level at 3 mg/kg equiv of atazanavir administered orally by UPLC/MS/MS analysis
Data set [8] concerns Human immunodeficiency virus 1.
Description: (§1) Antiviral activity against HIV1 NL4-3 infected in human MT2 cells assessed as reduction in viral yield measured after 4 days by EnduRen live cell substrate based luciferase reporter gene assay
Data set [9] is described as follows: physchem. The conditions noted are these: 30% CH3CN/HCl buffer, pH 1.
Description: Half life in pH 1 30%CH3CN/HCl buffer at 50 mM by RP-UPLC analysis
The nature of data set [10]: physchem. The settings on record: 30% CH3CN/acetate buffer, pH 4.
Description: Half life in pH 4 30%CH3CN/acetate buffer at 50 mM by RP-UPLC analysis
A short description of data set [11]: physchem. The settings on record: 30% CH3CN/phosphate buffer, pH 6.5.
Description: Half life in pH 6.5 30%CH3CN/phosphate buffer at 50 mM by RP-UPLC analysis
Data set [12] in a line: physchem. The settings on record: HCl buffer, pH 1.
Description: Aqueous solubility of the compound in pH 1 HCl buffer by RP-UPLC analysis
A short description of data set [13]: physchem. The settings on record: acetate buffer, pH 4.
Description: Aqueous solubility of the compound in pH 4 acetate buffer by RP-UPLC analysis
Data set [14] can be described thus: physchem. The conditions noted are these: phosphate buffer, pH 6.5.
Description: Aqueous solubility of the compound in pH 6.5 phosphate buffer by RP-UPLC analysis
The nature of data set [15]: Cmax in cannulated Sprague-Dawley rat assessed as (R)-(5S,10S,11S,14S)-11-Benzyl-5,14-di-tert-butyl-3,6,13,16-tetraoxo-8-(4-(pyridin-2-yl)benzyl)-2,17-dioxa-4,7,8,12,15-pentaazaoctadecan-10-yl 2-Amino-3-methylbutanoate level at 3 mg/kg equiv of atazanavir administered orally by UPLC/MS/MS analysis. Type of data set: ADME, organism-based. Further details: dose 3 mg/kg, route oral. The conditions noted are these: in vivo, po.

Data set [16] in a line: Tmax in cannulated Sprague-Dawley rat assessed as (R)-(5S,10S,11S,14S)-11-Benzyl-5,14-di-tert-butyl-3,6,13,16-tetraoxo-8-(4-(pyridin-2-yl)benzyl)-2,17-dioxa-4,7,8,12,15-pentaazaoctadecan-10-yl 2-Amino-3-methylbutanoate level at 3 mg/kg equiv of atazanavir administered orally by UPLC/MS/MS analysis. Type of data set: ADME, organism-based. The settings on record: in vivo, po.

Data set [17] in a line: Aqueous solubility of the compound in pH 3 buffer by RP-UPLC analysis. Type of data set: physicochemical.
Data set [18] can be described thus: Aqueous solubility of the compound in pH 4 citrate buffer by RP-UPLC analysis. The data set is classed as physicochemical.
The nature of data set [19]: Aqueous solubility of the compound in pH 5 buffer by RP-UPLC analysis. Type of data set: physicochemical.
Data set [20] in a line: Elimination half life in rat hepatocytes at 1 uM in absence of esterase inhibitor PMSF/CYP450 inhibitor ABT. The data set is classed as ADME, cell-based, Hepatocyte. The conditions noted are these: read-out: beta t1/2.
The nature of data set [21]: Prodrug conversion in mesenteric vein plasma of closed loop rat intestinal model assessed as atazanavir recovery at 1 mg/kg administered as cassette dose by LC/MS analysis. The settings on record: in vivo. The data set is classed as ADME, organism-based.
The nature of data set [22]: Prodrug conversion in intestinal homogenates of closed loop rat intestinal model assessed as atazanavir recovery at 1 mg/kg administered as cassette dose by LC/MS analysis. The data set is classed as ADME, organism-based, Intestine. The settings on record: in vivo.
Data set [23] in a line: Prodrug conversion in intestinal content of closed loop rat intestinal model assessed as atazanavir recovery at 1 mg/kg administered as cassette dose by LC/MS analysis. The data set is classed as ADME, organism-based. The settings on record: in vivo.
For data set [24], the target named is T1, UDP-glucuronosyltransferase 1A1 (Homo sapiens, UniProt P22309).
T1 sequence (P22309 whole entry): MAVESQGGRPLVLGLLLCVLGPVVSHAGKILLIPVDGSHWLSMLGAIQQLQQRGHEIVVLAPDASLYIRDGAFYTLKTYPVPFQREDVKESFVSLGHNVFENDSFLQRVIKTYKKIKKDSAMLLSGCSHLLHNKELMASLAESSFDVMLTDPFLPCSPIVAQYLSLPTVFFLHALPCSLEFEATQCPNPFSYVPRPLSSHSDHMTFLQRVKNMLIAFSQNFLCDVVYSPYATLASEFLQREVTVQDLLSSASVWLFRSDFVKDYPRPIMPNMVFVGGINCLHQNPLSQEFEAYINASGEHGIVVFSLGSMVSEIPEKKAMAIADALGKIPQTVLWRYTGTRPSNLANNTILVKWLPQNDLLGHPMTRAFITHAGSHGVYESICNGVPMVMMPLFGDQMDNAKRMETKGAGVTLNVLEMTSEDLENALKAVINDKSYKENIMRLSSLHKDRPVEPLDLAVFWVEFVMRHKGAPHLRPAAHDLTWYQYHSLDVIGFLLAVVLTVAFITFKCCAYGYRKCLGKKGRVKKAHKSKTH
Put plainly: Inhibition of recombinant human UGT1A1 using bilirubin as substrate preincubated for 5 mins followed by substrate addition and measured after 40 mins by LC-MS/MS analysis. Type of data set: ADME.

In data set [25] the target is T2, UDP-glucuronosyltransferase 1A1 (Rattus norvegicus, UniProt Q64550).
T2 sequence (Q64550 whole entry): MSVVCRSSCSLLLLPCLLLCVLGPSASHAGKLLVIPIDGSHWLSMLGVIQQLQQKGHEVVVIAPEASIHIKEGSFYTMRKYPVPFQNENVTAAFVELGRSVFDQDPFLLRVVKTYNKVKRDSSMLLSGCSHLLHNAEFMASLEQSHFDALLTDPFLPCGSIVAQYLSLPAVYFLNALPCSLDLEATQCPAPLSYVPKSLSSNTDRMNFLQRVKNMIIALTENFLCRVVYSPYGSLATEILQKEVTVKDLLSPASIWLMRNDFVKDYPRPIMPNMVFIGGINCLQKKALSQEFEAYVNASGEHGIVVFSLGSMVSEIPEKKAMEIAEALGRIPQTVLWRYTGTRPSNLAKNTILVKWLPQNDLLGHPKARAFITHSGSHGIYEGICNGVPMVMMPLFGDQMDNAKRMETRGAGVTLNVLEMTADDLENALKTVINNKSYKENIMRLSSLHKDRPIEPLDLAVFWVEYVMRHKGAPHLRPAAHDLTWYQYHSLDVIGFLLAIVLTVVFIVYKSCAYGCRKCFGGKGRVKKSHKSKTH
Put plainly: Inhibition of recombinant rat UGT1A1 using beta-estradiol as substrate preincubated for 5 mins followed by substrate addition and measured after 40 mins by LC-MS/MS analysis. Type of data set: ADME.

For data set [26], the target named is T1, UDP-glucuronosyltransferase 1A1. Kind of data set: Inhibition of UGT1A1 in human liver microsomes using beta-estradiol as substrate preincubated for 5 mins followed by substrate addition and measured after 40 mins by LC-MS/MS analysis. Type of data set: ADME. A general note: Liver microsomes are vesicles of endoplasmic reticulum, rich in cytochrome P450 enzymes.

In data set [27] the target is T2, UDP-glucuronosyltransferase 1A1. Kind of data set: Inhibition of UGT1A1 in rat liver microsomes using beta-estradiol as substrate preincubated for 5 mins followed by substrate addition and measured after 40 mins by LC-MS/MS analysis. Type of data set: ADME.
The nature of data set [28]: Drug recovery in feces of po dosed human. Type of data set: ADME, organism-based. The conditions noted are these: faeces, read-out: Drug recovery.
Data set [29] can be described thus: Oral bioavailability in rat. The settings on record: in vivo. Type of data set: ADME, organism-based.
Data set [30] in a line: Oral bioavailability in dog. The data set is classed as ADME, organism-based, Canis lupus familiaris. The conditions noted are these: in vivo.
Data set [31] in a line: Drug recovery in feces of po dosed rat. Type of data set: ADME, organism-based. The conditions noted are these: faeces, read-out: Drug recovery.
Data set [32] in a line: Drug recovery in feces of po dosed dog. The data set is classed as ADME, organism-based, Canis lupus familiaris. The conditions noted are these: faeces, read-out: Drug recovery.
Data set [33] can be described thus: Dissociation constant, pKa of the compound. Type of data set: physicochemical.
Data set [34] can be described thus: physchem. The settings on record: phosphate buffer, pH 7.4.
Description: Aqueous solubility of the compound in pH 7.4 phosphate buffer by RP-UPLC analysis
Data set [35] in a line: in vitro. The settings on record: human, Caco-2.
Description: Apparent permeability across apical to basolateral side in human Caco2 cells at 2 uM
The nature of data set [36]: in vitro. The conditions noted are these: human, Caco-2. This is another data set of the same source.
Description: Apparent permeability across basolateral to apical side in human Caco2 cells at 2 uM
Data set [37] is described as follows: in vitro. The settings on record: human, Caco-2. The source holds these as a separate data set.
Description: Efflux ratio of apparent permeability across basolateral to apical side over apical to basolateral side in human Caco2 cells
Data set [38] has as its system Human immunodeficiency virus 1. Put plainly: microbe, parasite or virus in culture. The settings on record: Human immunodeficiency virus 1, NL4-3, MT2, 96 h.
Description: as §1

≈ marks a conversion by molar mass, not a printed value. Bounds are passed on as bounds.

Chain of Protease (Q9YQ12 whole entry): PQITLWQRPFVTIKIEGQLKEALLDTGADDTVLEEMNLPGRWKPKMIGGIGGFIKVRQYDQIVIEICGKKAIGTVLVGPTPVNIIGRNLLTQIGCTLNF

In general, Cmax refers to the maximum level reached in the sampled fluid or tissue. As usually defined, the Tmax is the time from dosing to the highest level. Usually IC50 stands for the point on the concentration scale where inhibition reaches its midpoint. Usually EC50 stands for the concentration at which the effect is half-maximal. High values mean lower potency in that assay, low ones higher potency in that assay. The term solubility denotes the concentration that dissolves in the medium under given conditions. For the compound `COC(=O)N[C@H](C(=O)N[C@@H](Cc1ccccc1)[C@H](CN(Cc1ccc(-c2ccccn2)cc1)NC(=O)[C@@H](NC(=O)OC)C(C)(C)C)OC(=O)[C@@H](NC(=O)[C@@H](N)C(C)C)C(C)C)C(C)(C)C`, the Cmax in data set [1] worked out at 30 nM; in [5], 4 nM. Moreover, the figures for the Tmax in data set [2] and in data set [6] were 0.12 days and 0.21 days, respectively. Moreover, the results for the AUClast in data set [3] and in data set [7] were 0.085 µM·h and 0.02 µM·h, respectively. This compound also came in with an IC50 in data set [4] of 4 to 1140 nM. This compound also had a half-maximal effective concentration (EC50) in data set [8] of 0.9 to 1250 nM. Also, the half-life at 50000 µM in data set [9], in data set [10] and in data set [11] was greater than 20.8 days in each case. Further, the solubility in data set [12] was greater than 2150 µg/mL; in [13], greater than 1200 µg/mL; in data set [14] it was 780 µg/mL (≈ 864 µM).
Take `COC(=O)N[C@H](C(=O)N[C@@H](Cc1ccccc1)[C@H](CN(Cc1ccc(-c2ccccn2)cc1)NC(=O)[C@@H](NC(=O)OC)C(C)(C)C)OC(=O)[C@H](NC(=O)[C@H](N)C(C)C)C(C)C)C(C)(C)C`: the Cmax in data set [15] is 1430 nM; in [5] it was 12 nM. Besides, the Tmax in data set [16] was found to be 0.021 days; in [6] it was 0.042 days. The IC50 in data set [4] was 4 to 1140 nM. The same compound showed an AUClast in [7] of 0.053 µM·h. For the same compound, the half-maximal effective concentration (EC50) in data set [8] was in the range of 0.9 to 1250 nM. Moreover, the half-life at 50000 µM in data set [9], in [10] and in data set [11] was greater than 20.8 days in each case. Also, the solubility in [12] was greater than 2400 µg/mL; in data set [13], greater than 2200 µg/mL; in data set [14] it was 820 µg/mL (≈ 908 µM).
One may read the bioavailability as dose-corrected exposure relative to a reference, in per cent. Read a low bioavailability as poor availability. By pKa is commonly meant the pH at which an ionisable group is half protonated. For orientation: Papp A→B means the apparent permeability from the apical to the basolateral side of a cell layer. Read a high Papp A→B as ready permeation. In general, Papp B→A refers to how fast a substance crosses the layer from the basolateral side. By efflux ratio is commonly meant the permeability from basolateral to apical divided by that in the opposite direction, in the common usage. For the compound `COC(=O)N[C@H](C(=O)N[C@@H](Cc1ccccc1)[C@@H](O)CN(Cc1ccc(-c2ccccn2)cc1)NC(=O)[C@@H](NC(=O)OC)C(C)(C)C)C(C)(C)C` [ATAZANAVIR], the solubility in data set [17] was 28 µg/mL (≈ 39.7 µM); in data set [18], less than 1 µg/mL; in [19] it was less than 1 µg/mL; in data set [34], less than 1 µg/mL. In addition, the half-life at 1 µM in data set [20] was 0.0187 days. The Drug recovery in [21] turned out to be 1.4%; in data set [22], 1.6%; in [23], 16.1%. Further, the IC50 amounted to 300 nM in [24]; 4200 nM in [25]; 600 nM in [26]; 3400 nM in data set [27]; 0.3 nM in data set [4]. Moreover, the dose excreted in [28] turned out to be 79%; in data set [31], 39%; in data set [32] it was 79%. For the same compound, the values for the bioavailability in data set [29] and in data set [30] were 15% and 36%, respectively. This compound also displayed a pKa in data set [33] of 4.7. This compound also showed a Papp A→B at 2 µM in [35] of less than 1.5 ×10⁻⁶ cm/s. The compound also gave a Papp B→A at 2 µM in data set [36] of 20.3 ×10⁻⁶ cm/s. In addition, the efflux ratio in data set [37] is greater than 14. Besides, in [38], the EC50 worked out at 0.7 nM.

The values above are taken from ChEMBL document CHEMBL4390686, “Design, Synthesis, and Pharmacokinetic Evaluation of Phosphate and Amino Acid Ester Prodrugs for Improving the Oral Bioavailability of the HIV-1 Protease Inhibitor Atazanavir” (J Med Chem, 2019).
